The source of these data is US11203598B2, “Compounds for repressing cancer cell growth” (Institute For Cancer Research, priority 2018, dated 2021).

Common to all, as to assay type: cell-based, human
Assay [1] has as its system HCT116 cells. Briefly: FACS sub-G1 analysis. As to conditions: 72 hours, dose dependent, over untreated controls. On the procedure:
(§1) Cells were seeded out at 1×10^6 cells/well on six well plates and treated with CB002 and Analog 11 at ranging doses with DMSO controls. Cells were harvested after 72 hours of treatment, all cells including floating cells were fixed with ethanol and stained with Propidium Iodide and then analyzed using Epics Elite flow cytometer to measure the DNA content of the stained cells.

The subject of assay [2] is HCT116 p53-null cells. Nature of the assay: FACS sub-G1 analysis. The conditions noted are these: 72 hours, dose dependent, over untreated controls. The procedure:
as §1

In assay [3] the test system is HCT116 cells. Nature of the assay: Cell Titer-Glo cell viability assay. As to conditions: 72 hours, dose dependent. The procedure: (§2) Cell lines at a concentration of 4×10^3 cells/well were seeded out on an opaque 96-well plate and treated with CB002 and Analog 11 in ranging doses starting from 200 μmol/L with DMSO controls. At 72 hours after treatment, cells were mixed with 30 μL Cell Titer-Glo reagent and after ten minutes of room temperature incubation were imaged using IVIS imaging system (Xenogen).

The subject of assay [4] is HCT116 p53-null cells. Nature of the assay: Cell Titer-Glo cell viability assay. The conditions noted are these: 72 hours, dose dependent. On the procedure: as §2
(Cellular ATP, detected with luciferase, serves as a proxy for viable cell number.)

For assay [5], the system named is wild-type p53 and p53 targets in HCT116 cells. Nature of the assay: Western blot of p53 and p53 targets. As to conditions: for wild-type p53 protein level: 24 hours, increasing dose. The procedure: (§3) After treatment, cells were harvested by trypsinization, washed with PBS, and lysed with RIPA buffer (Sigma-Aldrich) for 30 minutes to 1 hour at 4° C. Protein lysates were spun down and supernatant was collected. Protein quantification was performed using a Pierce™ BCA Protein Assay Kit (Thermo Fisher Scientific). 1×NuPAGE® LDS sample buffer (Thermo Fisher Scientific) and 2-Mercaptoethanol as the reducing agent (Sigma-Aldrich) were added to protein lysates, followed by boiling for 15 minutes at 95° C. Equal total protein amounts samples were loaded into NuPAGE™ Novex™ 4-12% Bis-Tris Protein Gels (1.5 mm, Thermo Fisher Scientific) and gel eletrophoresis was performed with NuPAGE™ MES SDS Running Buffer. Proteins were transferred onto an Immobilon-P membrane (PVDF, EMD Millipore) using a Bio-Rad system with a 10% Tris-Glycine and 10% methanol transfer buffer diluted in distilled and deionized water. After transfer, membranes were blocked with 10% milk in TBST solution and then incubated overnight with primary antibody, washed with TBST and incubated with secondary antibody for 1 hour. Incubations were performed in 5% milk in TBST solution. Signal was detected by using a chemiluminescent detection kit, followed by autoradiography. The following antibodies were used: p53 (DO-1, 1:1000, Santa Cruz), p73 (1:1000, Bethyl Laboratories), p21 and NOXA (1:250, EMD Millipore), DR5, FADD, cleaved caspase 3, cleaved caspase 8, cleaved PARP, and LC3B (1:1000, Cell Signaling), and β-actin (1:10000, Sigma).
(§4) Proteins were isolated using NP40 Lysis Buffer (20 mmol/L Tris-HCl (pH 7.4), 150 mmol/L NaCl, 5 mmol/L EDTA, 50 mmol/L NaF, 1 mmol/L glycerophosphate, 5 mmol/L Na4P2O7, 0.5% NP40, and complete protease inhibitor cocktail (Roche)) and electrophoresed through 4-12% SDS-PAGE followed by semi-dry transfer to PVDF membranes. The PVDF membranes were incubated with different antibodies including p21 (OP64-100UG, EMD Millipore (world wide web at emdmillipore.com/US/en/product/Antip21WAF1-(Ab-1)-Mouse-mAb-(EA10), EMD_BIO-OP64)), PUMA (12450S, Cell Signaling Technology, world wide web at cellsignal.com/products/primary-antibodies/puma-d30c10-rabbit-mab/12450), DR5 (3696S, Cell Signaling Technology, world wide web at cellsignal.com/products/primary-antibodies/dr5-antibody/3696?N=4294956287&Ntt=3696s&fromPage=plp& requestid=541668), p53(sc-126, Santa Cruz, world wide web at scbt.com/scbt/fr/product/p53-antibody-do-1), and RAN (610341, BD Transduction Laboratories, world wide web at bdbiosciences.com/us/reagents/research/antibodies-buffers/cell-biologyreagents/cell-biology-antibodies/purified-mouse-anti-ran-20ran/p/610341) in blocking buffer at 4° C. overnight. Bound antibody will be detected using IRDye secondary antibodies (LI-COR Biosciences,) in Odyssey blocking buffer for 1 hour then imaged using the ODYSSEY infrared imaging system.
For orientation: A western blot detects proteins with antibodies after separation by electrophoresis.

Assay [6] concerns p53 pathway proteins in DLD-1 cells. Briefly: Western blot of p53 targets and LC3B. The conditions noted are these: for DR5 protein level: 8 and 24 hours. The procedure:
as §3, §4

For assay [7], the system named is p53 reporter (PG13-luc) in SW480 cells. Briefly: luciferase-based p53-reporter activity assay. On the procedure: High-throughput screening was performed using a non-invasive bioluminescence imaging in human colorectal cancer cell lines that stably express a p53-regulated luciferase reporter. Cells were seeded in 96-well plates (Greiner Bio-One) at a density of 1×10^4 cells per well. p53 transcriptional activity was imaged using an IVIS imaging system for a period of 3-4 hours.
Cell-based screening of p53 transcriptional activity for small molecule CB002 was accomplished using noninvasive bioluminescence imaging in human colorectal cancer cell lines SW480, DLD-1, DLD-1 p73^−/−, HCT116, and HCT116 p53^−/−. These cell lines stably express a p53 reporter, PG13-luc. Cells were seeded in opaque 96-well culture at a density of 5×10^4 cells/well. The cells were treated with CB002 at ranging doses with DMSO controls. Bioluminescence in cells was imaged for p53 transcriptional activity at 2 hours and 24 hours using IVIS imaging system (Xenogen).
In order to identify small molecules that could restore the p53 signaling pathway, 50,000 small molecules from the Chembridge Library were screened using a firefly luciferase human p53 reporter assay system. SW480 colorectal cancer cells that stably express the human p53 reporter were treated with compounds at various concentrations from 0-100 μM for 2 and 24 hours. […] To further validate the effects of CB002, the screening was expanded by testing effects on p53-dependent reporter activity in DLD-1, wild-type HCT116, and p53-null colorectal cancer HCT116 cell lines. […] Referring to FIG. 1, representative images of luciferase-based p53-reporter activity assays are shown at 3 hours (Panel A). Quantification of the luciferase-based p53-reporter activity assays in three different cell lines incubated from 3-24 hours with CB002 are shown (Panels B-D). p53-reporter activity assays are shown at 2 hours for HCT116 p53-null cells (Panel E).

Setting [8] is: 8 hours, 25 μmol/L and 50 μmol/L.
Where [9] appears, read: 24 hours, 12 μmol/L of CB002 and 25 μmol/L of Analog 11.

Regarding `Cn1c(=O)c2c(nc(Nc3ccccc3)n2C)n(C)c1=O` [Analog 11, 8-anilino-1,3,7-trimethyl-3,7-dihydro-1Hpurine-2,6-dione], the sub-G1 fraction entry with HCT116 cells [1] and in the assay with HCT116 p53-null cells [2] was “increased cells in sub-G1 fraction” each time. For the same molecule, the cell viability entry with HCT116 cells [3] and in the assay with HCT116 p53-null cells [4] was “reduced cell viability” in each case. Also, the PUMA expression result in assay [5] (8 and 24 hours) is given as “increase only at 24 hours”. In addition, the p21 protein level result in assay [5] (8 and 24 hours) is reported as “increase moderately in a dose dependent fashion”; in assay [6] (setting [8]), “minor increase in p21”; in assay [6] (setting [9]), “moderate increase in p21”. Also, in assay [5], the “wild-type p53 protein level” value was “moderate increase in wild-type p53”. For the same molecule, the DR5 protein level result in assay [6] is “no change of DR5”. Further, the PUMA protein level entry is on record as “an increase at the 25 μmol/L but not the 50 μmol/L” in assay [6] (setting [8]) and “an increase in PUMA” in assay [6] (24 hours). The p53 responsive bioluminescence result in assay [7] (0 to 20 μmol/L) is “increased p53 responsive bioluminescence in a dose dependent manner”.

Turning to `Cn1c(=O)c2[nH]c(Nc3ccccc3)nc2n(C)c1=O` [CB002, 8-anilino-1,3-dimethyl-3,7-dihydro-1H-purine-2,6-dione], the sub-G1 fraction entry in the assay with HCT116 cells [1] and with HCT116 p53-null cells [2] was “increased cells in sub-G1 fraction” each time. Further, the cell viability entry in the assay with HCT116 cells [3] and in the assay on HCT116 p53-null cells [4] was “reduced cell viability” in each case. Also, the p21 protein level result is reported as “increase moderately in a dose dependent fashion” in assay [5] (8 and 24 hours); “minor increase in p21” in assay [6] (setting [8]); “moderate increase in p21” in assay [6] (setting [9]). Also, in assay [5] (50 and 100 μM), the “wild-type p53 expression” value was “unable to decrease the expression of wild-type p53”. For the same molecule, in assay [5], the “wild-type p53 protein level” value is reported as “moderate increase in wild-type p53”. Further, in assay [6] (160 μM, 0-48 hours), the “LC3B protein expression time course” value is “initial increase of LC3B”. The DR5 protein level entry in assay [6] is listed as “slightly increased”. Moreover, the PUMA protein level entry in assay [6] (setting [8]) is given as “minor increase in PUMA”; in assay [6] (24 hours), “an increase in PUMA”. For the same molecule, the “p53 luciferase reporter activity” value in assay [7] (0-100 μM, 2 and 24 hours) is given as “activating the luciferase reporter in a dose-dependent manner”.
